Laboratory results from PMC10257182, “Discovery of senolytics using machine learning” (Nature Communications, 2023).
Like-named read-outs stand apart in the source and are kept apart here.

Columns and labels:
Format in all cases: cell-based, human
[1] = tested on: non-senescent control A549 cells; assay: Nuclei count senolytic assay, TIS model, non-senescent control cells; conditions: Homo sapiens, A549, Control cells, mean, read-out: Mean % Cell Survival; for viability at 10 µM: log (dose) [M] -5; for viability at 4.68 µM: log (dose) [M] -5.33; for viability at 2.19 µM: log (dose) [M] -5.66; for viability at 1 µM: log (dose) [M] -6; for viability at 0.468 µM: log (dose) [M] -6.33; for viability at 0.219 µM: log (dose) [M] -6.66; for viability at 0.1 µM: log (dose) [M] -7; for viability at 0.0468 µM: log (dose) [M] -7.33; for viability at 0.0219 µM: log (dose) [M] -7.66; for viability at 0.01 µM: log (dose) [M] -8
How it was run: (§1)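 A549 cells were made senescent with 100 μM etoposide for 48 h, then kept three days in normal media; non-senescent A549 served as controls. Compounds were dosed as a 10-point […] series (10 μM to 10 nM final) for 72 h in triplicate. Hoechst-stained nuclei were counted by imaging after fixation.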

[2] = tested on: non-senescent control IMR90 ER:RAS cells; assay: Nuclei count (Hoechst, high content imaging) senolytic assay, OIS model, non-senescent control cells; conditions: Homo sapiens; for viability at 1 µM: log (dose) [M] -6, 72 h; for viability at 0.2188 µM: log (dose) [M] -6.66, 72 h; for viability at 0.219 µM: log (dose) [M] -6.66
How it was run: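 Senescence in IMR90 ER:RAS fibroblasts induced with 100 nM 4-OHT; non-senescent and senescent cells treated 72 h with compounds, 10-point […] range 10 μM–10 nM, triplicate. Cells fixed, permeabilised, Hoechst-stained; total nuclei per well counted by high-content imaging versus untreated controls as cell-death readout.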

[3] = tested on: senescent A549 cells (etoposide-induced); assay: Nuclei count senolytic assay, therapy-induced senescence (TIS) model, senescent cells; conditions: Homo sapiens, A549, Senescent cells, mean, read-out: Mean % Cell Survival; for viability at 10 µM: log (dose) [M] -5; for viability at 4.68 µM: log (dose) [M] -5.33; for viability at 2.19 µM: log (dose) [M] -5.66; for viability at 1 µM: log (dose) [M] -6; for viability at 0.468 µM: log (dose) [M] -6.33; for viability at 0.219 µM: log (dose) [M] -6.66; for viability at 0.1 µM: log (dose) [M] -7; for viability at 0.0468 µM: log (dose) [M] -7.33; for viability at 0.0219 µM: log (dose) [M] -7.66; for viability at 0.01 µM: log (dose) [M] -8
How it was run: as §1

[4] = IMR-90, 72 h, Control, log (dose) [M] -5, 72 h, mean n=3 (Fig 3C), read-out: Mean % Cell Survival
[5] = IMR-90, 72 h, Control, log (dose) [M] -5.33, 72 h, mean n=3 (Fig 3C), read-out: Mean % Cell Survival
[6] = IMR-90, 72 h, Control, log (dose) [M] -5.66, 72 h, mean n=3 (Fig 3C), read-out: Mean % Cell Survival
[7] = IMR-90, 72 h, Control, mean n=3 (Fig 3C), read-out: Mean % Cell Survival
[8] = IMR-90, 72 h, Control, log (dose) [M] -6.33, 72 h, mean n=3 (Fig 3C), read-out: Mean % Cell Survival
[9] = IMR-90, 72 h, Control, log (dose) [M] -7, 72 h, mean n=3 (Fig 3C), read-out: Mean % Cell Survival
[10] = IMR-90, 72 h, Control, log (dose) [M] -7.33, 72 h, mean n=3 (Fig 3C), read-out: Mean % Cell Survival
[11] = IMR-90, 72 h, Control, log (dose) [M] -7.66, 72 h, mean n=3 (Fig 3C), read-out: Mean % Cell Survival
[12] = IMR-90, 72 h, Control, log (dose) [M] -8, 72 h, mean n=3 (Fig 3C), read-out: Mean % Cell Survival
[13] = IMR-90, Control cells, log (dose) [M] -5.66, individual replicates, SUP FIG 4C, read-out: % Cell Survival
[14] = IMR-90, Control cells, log (dose) [M] -6.33, individual replicates, SUP FIG 4C, read-out: % Cell Survival
[15] = IMR-90, Control cells, log (dose) [M] -8, individual replicates, SUP FIG 4C, read-out: % Cell Survival
[16] = IMR-90, Control, log (dose) [M] -5, read-out: % Cell Survival
[17] = IMR-90, Control, log (dose) [M] -5.66, read-out: % Cell Survival
[18] = IMR-90, Control, read-out: % Cell Survival
[19] = IMR-90, Control, log (dose) [M] -7, read-out: % Cell Survival
[20] = IMR-90, Control, log (dose) [M] -7.66, read-out: % Cell Survival
[21] = IMR-90, Control, log (dose) [M] -8, read-out: % Cell Survival

O=c1c(O)c(-c2ccc(O)cc2)oc2c(O)c(O)cc(O)c12 [Herbacetin, herbacetin]
viability at 10 µM [1]: 95.4% | viability at 4.68 µM [1]: 61.9% | viability at 2.19 µM [1]: 89.3% | viability at 1 µM [1]: 98.7% | viability at 0.468 µM [1]: 110% | viability at 0.219 µM [1]: 94.4% | viability at 0.1 µM [1]: 93.1% | viability at 0.0468 µM [1]: 91.6% | viability at 0.0219 µM [1]: 96.1% | viability at 0.01 µM [1]: 96.9% | viability at 10 µM [2, 4]: 100% | viability at 4.677 µM [2, 5]: 108% | viability at 2.188 µM [2, 6]: 97.9% | viability at 1 µM [2, 7]: 74.4% | viability at 0.4677 µM [2, 8]: 94.9% | viability at 0.2188 µM [2, 7]: 93.5% | viability at 0.1 µM [2, 9]: 94.6% | viability at 0.04677 µM [2, 10]: 102% | viability at 0.02188 µM [2, 11]: 109% | viability at 0.01 µM [2, 12]: 107% | viability at 2.188 µM [2, 13]: 94.1% | viability at 0.4677 µM [2, 14]: 105% | viability at 0.04677 µM ([2]; IMR-90, Control cells, log (dose) [M] -7.33, individual replicates, SUP FIG 4C, read-out: % Cell Survival): 100% | viability at 0.02188 µM ([2]; IMR-90, Control cells, log (dose) [M] -7.66, individual replicates, SUP FIG 4C, read-out: % Cell Survival): 120% | viability at 0.01 µM [2, 15]: 113% | viability at 10 µM [2, 16]: 97.9% | viability at 4.68 µM ([2]; IMR-90, Control, log (dose) [M] -5.33, read-out: % Cell Survival): 96.8% | viability at 2.19 µM [2, 17]: 91.6% | viability at 0.219 µM [2, 18]: 93.8% | viability at 0.1 µM [2, 19]: 91.7% | viability at 0.04677 µM ([2]; IMR-90, Control, log (dose) [M] -7.33, read-out: % Cell Survival): 92.8% | viability at 0.0219 µM [2, 20]: 98.3% | viability at 0.01 µM [2, 21]: 100% | viability at 10 µM [3]: 112% | viability at 4.68 µM [3]: 122% | viability at 2.19 µM [3]: 121% | viability at 1 µM [3]: 87.3% | viability at 0.468 µM [3]: 80.2% | viability at 0.219 µM [3]: 102% | viability at 0.1 µM [3]: 114% | viability at 0.0468 µM [3]: 106% | viability at 0.0219 µM [3]: 98.6% | viability at 0.01 µM [3]: 91.8%

O=c1c(O)c(-c2ccc(O)cc2O)oc2cc(O)cc(O)c12 [Morin, morin]
viability at 10 µM [1]: 33.9% | viability at 4.68 µM [1]: 98.9% | viability at 2.19 µM [1]: 63.6% | viability at 1 µM [1]: 115% | viability at 0.468 µM [1]: 104% | viability at 0.219 µM [1]: 99.4% | viability at 0.1 µM [1]: 94.4% | viability at 0.0468 µM [1]: 111% | viability at 0.0219 µM [1]: 67.6% | viability at 0.01 µM [1]: 67.4% | viability at 10 µM [2, 4]: 95.2% | viability at 4.677 µM [2, 5]: 93.9% | viability at 2.188 µM [2, 6]: 96.1% | viability at 1 µM [2, 7]: 81.3% | viability at 0.4677 µM [2, 8]: 91.6% | viability at 0.2188 µM [2, 7]: 86.4% | viability at 0.1 µM [2, 9]: 91.3% | viability at 0.04677 µM [2, 10]: 86.7% | viability at 0.02188 µM [2, 11]: 91.5% | viability at 0.01 µM [2, 12]: 99.5% | viability at 10 µM ([2]; IMR-90, Control cells, log (dose) [M] -5, individual replicates, SUP FIG 4C, read-out: % Cell Survival): 88.7% | viability at 4.677 µM ([2]; IMR-90, Control cells, log (dose) [M] -5.33, individual replicates, SUP FIG 4C, read-out: % Cell Survival): 93.4% | viability at 2.188 µM [2, 13]: 102% | viability at 0.4677 µM [2, 14]: 88.8% | viability at 0.1 µM ([2]; IMR-90, Control cells, log (dose) [M] -7, individual replicates, SUP FIG 4C, read-out: % Cell Survival): 98.5% | viability at 0.01 µM [2, 15]: 103% | viability at 10 µM [2, 16]: 102% | viability at 2.19 µM [2, 17]: 93.3% | viability at 0.468 µM ([2]; IMR-90, Control, log (dose) [M] -6.33, read-out: % Cell Survival): 110% | viability at 0.219 µM [2, 18]: 106% | viability at 0.1 µM [2, 19]: 91.9% | viability at 0.0219 µM [2, 20]: 98.9% | viability at 0.01 µM [2, 21]: 97.2% | viability at 10 µM [3]: 87.9% | viability at 4.68 µM [3]: 93.5% | viability at 2.19 µM [3]: 59.5% | viability at 1 µM [3]: 67.1% | viability at 0.468 µM [3]: 88.2% | viability at 0.219 µM [3]: 69.3% | viability at 0.1 µM [3]: 84.2% | viability at 0.0468 µM [3]: 54.5% | viability at 0.0219 µM [3]: 87.7% | viability at 0.01 µM [3]: 95.1%
